According to patent US4550186A, “Binuclear copper (II) carboxylates formed from amine-carboxyboranes” (Duke University, priority 1983, dated 1985):

Columns and labels:
[1] = system: Phosphatidate Phosphohydrolase; assay: In vitro liver enzyme study: phosphatidate phosphohydrolase; type: biochemical, mouse; details: in vitro CF1 liver, 30 min
Experimental: In vitro enzymatic studies were determined using 10% homogenates of CF1 male mouse liver with 50-200 μM of test drugs. In vivo enzymatic studies were determined using 10% homogenates of liver from CF1 male mice obtained after administering the agents for 16 days at a dose ranging from 2.5-20 mg/kg/day intraperitoneally. The liver homogenates for both in vitro and in vivo studies were prepared in 0.25M sucrose and 0.001M (ethylenedinitrilo)tetraacetic acid. Acetyl coenzyme A synthetase and adenosine triphosphate dependent citrate lyase activities were determined spectrophotometrically at 540 nm as the hydroxylamate of acetyl coenzyme A formed after 30 min at 37° C. Mitochondrial citrate exchange was determined by the procedure of Robinson et al [Eur. J. Biochem., 216, 63 (1970)] using ^14 C-sodium bicarbonate (41 mCi/mmol) incorporated into mitochondrial ^14 C-citrate after isolating rat mitochondria (9000 g×10 min) from the homogenates. The exchanges of the ^14 C-citrate were determined after incubating the mitochondrial fraction which was loaded with labeled citrate and test drugs for 10 min. Then the radioactivity was measured in the mitochondrial and supernantant fractions in scintillation fluid and expressed as a percentage. Cholesterol side chain oxidation was determined by the method of Kritchevsky and Tepper [Artherosclerosis, 18, 93 (1973)] using (26-^14 C) cholesterol (50 mCi/mmol) and mitochondria isolated from rat liver homogenates. […] Fatty acid synthetase activity was determined by the method of Brady et al [J. Biol. Chem., 235, 3093 (1960)] using [2-^14 C] malonyl-coenzyme A (37.5 mCi/mmol) which was incorporated into newly synthesized fatty acids that were extracted with ether and counted. Acyl transferase activity was determined with glycerol-3phosphate [L-2-^3 H(N)] […] HCl and counted. Phosphatidate phosphohydrolase activity was measured as the inorganic phosphate released after 30 min from phosphatidic acid by the method of Mavis et al [J. Lipid Res., 19, 467 (1978)]. […]

[2] = system: purine de novo synthesis of Ehrlich ascites cells; assay: In vivo formate incorporation into purines; parameters: species or system mouse
Experimental: CF1 male mice (~30 g) were implanted with 2×10^6 Ehrlich ascites tumor cells, intraperitoneally on Day 0. Compound I was suspended by homogenation in 0.05% polysorbate.80-water and administered intraperitoneally at 10 and 20 mg/kg for 9 days to determine its effectiveness for inhibition of tumor growth. Mice were sacrificed on Day 10, and the ascites fluid was collected from the peritoneal cavity. The volume and ascrit (packed cell volume) were determined for each animal and the percent inhibition of tumor growth was calculated. For the metabolic studies, mice were treated on Days 8 and 9 with 10 mg/kg of Compound I, intraperitoneally. […]
Carbamyl phosphate synthetase activity was determined using the reaction medium of Kalman et al [Am. […] Citrulline formed from ornithine was measured at 490 nm by the method of Archibald [J. Biol. Chem., 156, 121 (1944)]. […] The ^14 CO2 generated in 15 min was trapped in 1M KOH and counted. Thymidylate synthetase activity was determined using a post-mitochondrial supernatant (9000 g×10 min) and 5 μCi of 5-^3 H-deoxyuridine monophosphate (14 Ci/mmol) according to the method of Kampf et al [ J. Med. Chem., 19, 903 (1976)]. ^14 C-Formate incorporation into purines was determined by the method of Spassova et al [Biochem. Pharmacol., 25, 923 (1976)] using 0.5 μCi of ^14 C-formic acid (52.0 mCi/mmol). […] The Rf value for xanthine monophosphate was scraped and counted. […]

With “{Cu[(CH3)3 N.BH2 CO2 ]2.(CH3)3 N.BH2 COOH} [Compound I]” the “Phosphatidate Phosphohydrolase” value ([1]; 50 μM) was 77 ± 5 Percent Control, the “Phosphatidate Phosphohydrolase” value ([1]; 100 μM) was 63 ± 6 Percent Control and the “Phosphatidate Phosphohydrolase” value ([1]; 200 μM) was 35 ± 3 Percent Control. For the same substance, the “14C-Formate incorporation into purines” value ([2]; 10 mg/kg/day I.P. on Days 8 and 9) was 59 ± 6 % Control and the “Purine de novo synthesis inhibited” value ([2]; 10 day Ehrlich ascites cells) was 41%.
